In patent US8362249B2, “CXCR3 receptor antagonists” (Boehringer Ingelheim International GmbH, priority 2009, dated 2013):
pIC50: −log10 of the molar value.

Target: CXCR3 (Macaca fascicularis, UniProt A0A2K5UV19)
Assay: functional cellular assay measuring calcium flux in CXCR3 transfected cells (block of CXCR3/IP-10 interaction)
Format: cell-based
Conditions: IP-10 induced intracellular calcium flux; Cyno-CHO cells stably expressing recombinant CXCR3 and G-alpha-16
Procedure: Compounds are assessed for the ability to block the interaction of CXCR3 and IP-10 in a functional cellular assay measuring calcium flux in CXCR3 transfected cells.
Cyno-CHO cells, stably expressing recombinant CXCR3 and G-alpha-16 are grown in F12 medium (Mediatech #45000-360) supplemented with 10% (V/V) FBS (Mediatech #35-01500), 1% Geneticin (Invitrogen #10131-027) and 0.2% Zeocin (Invitrogen #R250-05). The cells are spun down and re-suspended in growth media to a concentration of 4.8 E5 cells/mL. 25 microL of cell suspension is added to each well of a BD-384-well TC treated plate, providing 12,000 cells/well. The plate is incubated at 37° C./5% CO2 overnight. On the day of the assay, the plates are removed, the media is flicked out and 25 microL of Ca-4 dye in assay buffer (HBSS, 10 mM HEPES ph 7.4), containing 2 mM probenacid is added to each well. The cell assay plates are then incubated at 37° C./5% CO2 for one hour.
Test compounds are dissolved in DMSO and diluted to 1.045 mM in DMSO. Just prior to assay, 2.75 microL of appropriately diluted test compound are added to each well of a 384 well plate containing 45 microL of HBSS buffer. After mixing, 5 microL of diluted compound are added to each well of the cell assay plate for a final assay concentration of 10 microM. The plate is incubated at room temperature for 15 min. 10 microL of IP-10 stock solution in HBSS (4× EC80 concentration) are added to each well of the cell assay plate except those cells reserved as blank wells containing buffer only. Intracellular calcium flux is recorded on the HAMAMTSU FDSS6000, using excitation at 480 nm and emission at 540 nm. Data are analyzed using Activity Base software.
In general, the preferred potency range (IC50) of compounds in the above assay is between 1 nM to 3 μM, and the most preferred potency range is 1 nM to 20 nM.

Chain of CXCR3 (A0A2K5UV19 entry or part of it): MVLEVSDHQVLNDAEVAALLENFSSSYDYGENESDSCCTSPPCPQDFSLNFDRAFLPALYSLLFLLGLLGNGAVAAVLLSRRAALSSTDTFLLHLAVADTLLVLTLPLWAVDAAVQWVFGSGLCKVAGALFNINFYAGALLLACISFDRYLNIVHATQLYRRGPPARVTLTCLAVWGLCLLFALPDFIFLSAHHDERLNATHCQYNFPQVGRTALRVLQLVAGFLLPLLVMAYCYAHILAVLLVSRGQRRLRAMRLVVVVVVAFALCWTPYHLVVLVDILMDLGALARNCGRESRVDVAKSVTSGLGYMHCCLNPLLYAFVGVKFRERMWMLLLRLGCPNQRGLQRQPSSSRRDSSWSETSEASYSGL

| SMILES | pIC50 |
| --- | --- |
| Cc1cc(C(=O)NCC(=O)N2CCN(c3ccccc3C(=O)Nc3cccnc3)CC2)nn1C [1,5-Dimethyl-1H-pyrazole-3-carboxylic acid (2-oxo-2-{4-[2-(pyridin-3-ylcarbamoyl)-phenyl]-piperazin-1-yl}-ethyl)-amide] | 7.70 |
| Cn1cccc1C(=O)NCC(=O)N1CCN(c2ccccc2C(=O)Nc2cccnc2)CC1 [1-Methyl-1H-pyrrole-2-carboxylic acid (2-oxo-2-{4-[2-(pyridin-3-ylcarbamoyl)-phenyl]-piperazin-1-yl}-ethyl)-amide] | 7.92 |
| COc1cccc(C(=O)NCC(=O)N2CCN(c3ccccc3C(=O)Nc3cccnc3)CC2)c1OC [2,3-Dimethoxy-N-(2-oxo-2-{4-[2-(pyridin-3-ylcarbamoyl)-phenyl]-piperazin-1-yl}-ethyl)-benzamide] | 7.90 |
| COc1cccc(C(=O)N(C)CC(=O)N2CCN(c3ccccc3C(=O)Nc3ccncc3)CC2)c1OC [2,3-Dimethoxy-N-methyl-N-(2-oxo-2-{4-[2-(pyridin-4-ylcarbamoyl)-phenyl]-piperazin-1-yl}-ethyl)-benzamide] | 7.82 |
| Cc1nc(C)c(C(=O)NCC(=O)N2CCN(c3ccccc3C(=O)Nc3cccnc3)CC2)s1 [2,4-Dimethyl-thiazole-5-carboxylic acid (2-oxo-2-{4-[2-(pyridin-3-ylcarbamoyl)-phenyl]-piperazin-1-yl}-ethyl)-amide] | 7.86 |
| CCn1nc(C)cc1C(=O)NCC(=O)N1CCN(c2ccccc2C(=O)Nc2cccnc2)CC1 [2-Ethyl-5-methyl-2H-pyrazole-3-carboxylic acid (2-oxo-2-{4-[2-(pyridin-3-ylcarbamoyl)-phenyl]-piperazin-1-yl}-ethyl)-amide] | 7.74 |
| O=C(Nc1cccnc1)c1ccccc1N1CCN(C(=O)CN2CCc3cccnc32)CC1 [2-[4-(2-2,3-Dihydro-pyrrolo[2,3-b]pyridin-1-yl-acetyl)-piperazin-1-yl]-N-pyridin-3-yl-benzamide] | 8.00 |
| O=C(Nc1ccncc1)c1ccccc1N1CCN(C(=O)Cc2coc3ccccc23)CC1 [2-[4-(2-Benzofuran-3-yl-acetyl)-piperazin-1-yl]-N-pyridin-4-yl-benzamide] | 7.99 |
| O=C(Nc1ccncc1)c1ccccc1N1CCN(C(=O)Cc2cn3ccccc3n2)CC1 [2-[4-(2-Imidazo[1,2-a]pyridin-2-yl-acetyl)-piperazin-1-yl]-N-pyridin-4-yl-benzamide] | 7.80 |
| O=C(Nc1ccncc1)c1ccccc1N1CCN(C(=O)CNc2ccccc2)CC1 [2-[4-(2-Phenylamino-acetyl)-piperazin-1-yl]-N-pyridin-4-yl-benzamide] | 7.72 |
| Cc1nc(C)c(CC(=O)N2CCN(c3ccccc3C(=O)Nc3ccncc3)CC2)s1 [2-{4-[2-(2,4-Dimethyl-thiazol-5-yl)-acetyl]-piperazin-1-yl}-N-pyridin-4-yl-benzamide] | 7.89 |
| O=C(Nc1ccnc(C(F)(F)F)c1)c1ccccc1N1CCN(C(=O)CN2CCCCC2=O)CC1 [2-{4-[2-(2-Oxo-piperidin-1-yl)-acetyl]-piperazin-1-yl}-N-(2-trifluoromethyl-pyridin-4-yl)-benzamide] | 7.96 |
| Cc1nn(-c2ccccc2)c(C)c1CC(=O)N1CCN(c2ccccc2C(=O)Nc2ccncc2)CC1 [2-{4-[2-(3,5-Dimethyl-1-phenyl-1H-pyrazol-4-yl)-acetyl]-piperazin-1-yl}-N-pyridin-4-yl-benzamide] | 7.80 |
| COc1cc(NC(=O)c2cc(F)ccc2N2CCN(C(=O)Cn3nc(C)cc3C)CC2)ccn1 [2-{4-[2-(3,5-Dimethyl-pyrazol-1-yl)-acetyl]-piperazin-1-yl}-5-fluoro-N-(2-methoxy-pyridin-4-yl)-benzamide] | 8.01 |

Results, then the compound that gave them:

| pIC50 | SMILES |
| --- | --- |
| 8.14 | Cc1nn(CC(=O)N2CCN(c3ncc(Cl)cc3NC(=O)c3cccc(C(F)(F)F)c3)CC2)c(C)c1Cl |
| 8.38 | Cn1cccc1C(=O)NCC(=O)N1CCN(c2ccccc2C(=O)Nc2ccncc2)CC1 [1-Methyl-1H-pyrrole-2-carboxylic acid (2-oxo-2-{4-[2-(pyridin-4-ylcarbamoyl)-phenyl]-piperazin-1-yl}-ethyl)-amide] |
| 8.19 | CN(CC(=O)N1CCN(c2ccccc2C(=O)Nc2ccncc2)CC1)C(=O)c1cccn1C [1-Methyl-1H-pyrrole-2-carboxylic acid methyl-(2-oxo-2-{4-[2-(pyridin-4-ylcarbamoyl)-phenyl]-piperazin-1-yl}-ethyl)-amide] |
| 8.43 | COc1cccc(C(=O)NCC(=O)N2CCN(c3ccccc3C(=O)Nc3ccncc3)CC2)c1OC [2,3-Dimethoxy-N-(2-oxo-2-{4-[2-(pyridin-4-ylcarbamoyl)-phenyl]-piperazin-1-yl}-ethyl)-benzamide] |
| 8.27 | Cc1cc(C(=O)NCC(=O)N2CCN(c3ccccc3C(=O)Nc3ccncc3)CC2)n(C)n1 [2,5-Dimethyl-2H-pyrazole-3-carboxylic acid (2-oxo-2-{4-[2-(pyridin-4-ylcarbamoyl)-phenyl]-piperazin-1-yl}-ethyl)-amide] |
| 8.14 | O=C(Nc1ccncc1)c1ccccc1N1CCN(C(=O)Cc2n[nH]c3ccccc23)CC1 [2-[4-(2-1H-Indazol-3-yl-acetyl)-piperazin-1-yl]-N-pyridin-4-yl-benzamide] |
| 8.01 | CS(=O)(=O)c1ccc(NC(=O)c2ccccc2N2CCN(C(=O)CN3CCc4cccnc43)CC2)cc1 [2-[4-(2-2,3-Dihydro-pyrrolo[2,3-b]pyridin-1-yl-acetyl)-piperazin-1-yl]-N-(4-methanesulfonyl-phenyl)-benzamide] |
| 8.05 | O=C(Nc1ccncc1)c1ccccc1N1CCN(C(=O)CN2CCc3cccnc32)CC1 [2-[4-(2-2,3-Dihydro-pyrrolo[2,3-b]pyridin-1-yl-acetyl)-piperazin-1-yl]-N-pyridin-4-yl-benzamide] |
| 8.18 | O=C(Nc1ccncc1)c1ccccc1N1CCN(C(=O)Cc2noc3ccccc23)CC1 [2-[4-(2-Benzo[d]isoxazol-3-yl-acetyl)-piperazin-1-yl]-N-pyridin-4-yl-benzamide] |
| 8.12 | O=C(NCC(=O)N1CCN(c2ccccc2C(=O)Nc2cccnc2)CC1)c1ccccc1 [2-[4-(2-Benzoylamino-acetyl)-piperazin-1-yl]-N-pyridin-3-yl-benzamide] |
| 8.16 | O=C(Nc1ccc(C(F)(F)F)nc1)c1ccccc1N1CCN(C(=O)Cn2ccc3cccnc32)CC1 [2-[4-(2-Pyrrolo[2,3-b]pyridin-1-yl-acetyl)-piperazin-1-yl]-N-(6-trifluoromethyl-pyridin-3-yl)-benzamide] |
| 8.08 | O=C(Nc1cnc2ccccc2c1)c1ccccc1N1CCN(C(=O)Cn2ccc3cccnc32)CC1 [2-[4-(2-Pyrrolo[2,3-b]pyridin-1-yl-acetyl)-piperazin-1-yl]-N-quinolin-3-yl-benzamide] |
| 8.21 | O=C(Nc1ccncc1)c1ccccc1N1CCN(C(=O)CN2C(=O)c3ccccc3C2=O)CC1 [2-{4-[2-(1,3-Dioxo-1,3-dihydro-isoindol-2-yl)-acetyl]-piperazin-1-yl}-N-pyridin-4-yl-benzamide] |
| 8.29 | O=C(Nc1ccncc1)c1ccccc1N1CCN(C(=O)CN2Cc3ccccc3C2=O)CC1 [2-{4-[2-(1-Oxo-1,3-dihydro-isoindol-2-yl)-acetyl]-piperazin-1-yl}-N-pyridin-4-yl-benzamide] |
| 8.21 | O=C(Nc1ccncc1)c1ccccc1N1CCN(C(=O)Cn2ncc3ccccc3c2=O)CC1 [2-{4-[2-(1-Oxo-1H-phthalazin-2-yl)-acetyl]-piperazin-1-yl}-N-pyridin-4-yl-benzamide] |
| 8.30 | Cc1cn(CC(=O)N2CCN(c3ccccc3C(=O)Nc3ccccc3)CC2)c(C)n1 [2-{4-[2-(2,4-Dimethyl-imidazol-1-yl)-acetyl]-piperazin-1-yl}-N-phenyl-benzamide] |
| 8.15 | Cc1nc(CC(=O)N2CCN(c3ccccc3C(=O)Nc3ccncc3)CC2)c(C)s1 [2-{4-[2-(2,5-Dimethyl-thiazol-4-yl)-acetyl]-piperazin-1-yl}-N-pyridin-4-yl-benzamide] |
| 8.07 | Cc1nc2ccccc2c(=O)n1CC(=O)N1CCN(c2ccccc2C(=O)Nc2ccncc2)CC1 [2-{4-[2-(2-Methyl-4-oxo-4H-quinazolin-3-yl)-acetyl]-piperazin-1-yl}-N-pyridin-4-yl-benzamide] |
| 8.52 | O=C(Nc1ccc(C(F)(F)F)nc1)c1ccccc1N1CCN(C(=O)CN2CCCCC2=O)CC1 [2-{4-[2-(2-Oxo-piperidin-1-yl)-acetyl]-piperazin-1-yl}-N-(6-trifluoromethyl-pyridin-3-yl)-benzamide] |
| 8.11 | O=C(Nc1ccnc(OCC(F)(F)F)c1)c1ccccc1N1CCN(C(=O)CN2CCCCC2=O)CC1 [2-{4-[2-(2-Oxo-piperidin-1-yl)-acetyl]-piperazin-1-yl}-N-[2-(2,2,2-trifluoro-ethoxy)-pyridin-4-yl]-benzamide] |
| 8.13 | O=C(Nc1ccncc1)c1ccccc1N1CCN(C(=O)CN2CCCCC2=O)CC1 [2-{4-[2-(2-Oxo-piperidin-1-yl)-acetyl]-piperazin-1-yl}-N-pyridin-4-yl-benzamide] |
